Experimental data as given in patent US20250295639A1, “METHODS FOR TREATING HEART DISEASES” (Cytokinetics, Incorporated, priority 2024, published 2025).
Values joined by “and” are separate entries in the source; they are usually repeats but may differ in a detail not shown here. Equal entries are not always repeated.

Tests used:
[1] = test system: patients with symptomatic obstructive HCM (oHCM); assay: Phase 2 dose finding clinical trial of aficamten in symptomatic oHCM (10 weeks, Cohort 1 and Cohort 2); assay type: in vivo, human
From the text: Overall, the incidence of adverse events was similar between treatment arms. […] No new cases of atrial fibrillation were reported by the investigators. In this dose-range finding trial, one patient experienced a transient decrease in left ventricular ejection fraction (LVEF) that required dose adjustment but not dose interruption. […] A multi-center, randomized, placebo-controlled, double-blind, dose finding phase 2 clinical trial of aficamten in patients with symptomatic obstructive HCM (oHCM) was conducted and described as Example 2 in WO 2024/031016 and in U.S. Patent Publication US-2024-0115554-A1, the disclosures of which are incorporated by reference herein.

[2] = test system: patients with symptomatic oHCM; assay: SEQUOIA-HCM phase 3 trial: echocardiography (LVOT gradients, cardiac structure and function); assay type: in vivo, human; conditions: for LA Volume Index / LV Ejection Fraction / LV Mass Index / LV Maximal Wall Thickness: Non-CMR Cohort N = 225 (Aficamten N = 117)
From the text: The following example describes a phase 3, multi-center, randomized, double-blind, placebo-controlled trial to evaluate the efficacy and safety of aficamten in adults with symptomatic hypertrophic cardiomyopathy and left ventricular outflow tract obstruction. This trial evaluated the effects of treatment with aficamten over a 24-week period on cardiopulmonary exercise capacity and health status in patients with symptomatic oHCM. This trial was intended to establish the efficacy and safety of aficamten with respect to improvements in exercise capacity and patient symptoms, as well as reduction in left ventricular outflow tract gradient (LVOT-G) in patients with oHCM.
This was a Phase 3 randomized, placebo-controlled, double-blind, multi-center trial in patients with symptomatic oHCM. Approximately 270 eligible patients were to be randomized in a 1:1 ratio to receive aficamten or placebo. Doses of 5, 10, 15, or 20 mg or matching placebo were administered in an escalating manner using echocardiography to guide dose titration. Randomization was stratified by use of beta blockers and CPET exercise modality.
The trial comprised three periods. The screening period was up to 6 weeks in duration. The double-blind placebo-controlled treatment period lasted 24 weeks. Following the final dose of aficamten, there was a 4-week safety follow-up period. Aficamten was administered orally once daily. During the initial six weeks of the treatment period, aficamten doses were individually titrated at Weeks 2, 4, and 6 using echocardiography. […] An echocardiogram was performed at each subsequent visit during the trial and the dose down-titrated if necessary. The primary endpoint of pVO2 was measured by CPET at screening and at end of treatment (Week 24). If applicable, patients continued taking background HCM medications consistent with regional clinical practice guidelines during the trial.
Echocardiography. Echocardiography was done during screening and prior to dosing on Day 1. Echocardiography was also performed 2 hours after dosing in the clinic on Weeks 2, 4, 6, 8, 12, 16, 20, 24, and 28.
Certified sonographers performed echocardiography using standard high-quality, high-fidelity machines. Whenever possible, the same sonographer performed all studies for a single patient. Echocardiograms were performed after the patient had been resting in a supine position for at least 10 minutes and in accordance with the echocardiography manual. Instructions for the performance of the Valsalva maneuver and imaging the LVOT-G were also included in the echocardiography manual.
Echocardiographic parameters measured at least included the left ventricular parameters (resting left ventricular outflow tract pressure gradient (LVOT-G), post-Valsalva LVOT-G, LVEF, LVFS, global longitudinal strain (GLS), left ventricular end diastolic diameter (LVEDD), left ventricular end diastolic volume (LVEDV), left ventricular end systolic diameter (LVESD), left ventricular end systolic volume (LVESV), left ventricular cardiac output (LVCO), LV Stroke Volume, LVOT velocity time integral (VTI), interventricular septum thickness (IVST), isovolumic contraction time (IVCT), IVRT, E/E, ratio (septal and lateral), and left atrial volume (LAV)) in addition to right heart function metrics detailed in the echocardiography protocol.
All echocardiograms (including unscheduled) were sent to the core laboratory for interpretation. On-site interpretation of LVEF and LVOT-G were used for dose escalation and reduction decisions via IWRS. The core laboratory quantification of the echocardiograms was used for all statistical analyses.
Baseline values are presented as mean±SD. Placebo corrected differences are presented as mean±95% CI and adjusted for treatment and stratification by beta-blockers and exercise mode (bicycle vs treadmill). […]

[3] = Echo Measurements, Non-CMR Cohort N = 225, vs placebo
[4] = Treatment (Week 24), listed as Aficamten

## CCc1nc(-c2ccc3c(c2)CC[C@H]3NC(=O)c2cnn(C)c2)no1 [aficamten, (R)—N-(5-(5-ethyl-1,2,4-oxadiazol-3-yl)-2,3-dihydro-1H-inden-1-yl)-1-methyl-1H-pyrazole-4-carboxamide]
[1]; 10 weeks treatment
  tolerability: well tolerated
[1]; Cohort 1, Week 10
  patients achieving target goal of treatment (resting gradient <30 mmHg and post-Valsalva gradient <50 mmHg): 78.6%
[1]; Cohort 2, Week 10
  patients achieving target goal of treatment (resting gradient <30 mmHg and post-Valsalva gradient <50 mmHg): 92.9%
[1]; both cohorts
  LVEF after the end of treatment (reversibility): returned towards baseline within two weeks
[1]; human, in vivo
  dose dependence of observed reductions in LVOT-G: dose dependent
  new cases of atrial fibrillation: No new cases
  serious adverse events attributed to aficamten: No serious adverse events
  time of onset of reductions in LVOT-G after initiating treatment: within two weeks
[2]; 50/61
  patients of the SAM-resolution group reverting to baseline mitral valve SAM after washout: 82%
[2]; 61/117, 24 weeks treatment
  patients with complete resolution of mitral valve SAM: 52%
[2]; Echo Measurements, Baseline
  LA Volume Index: 40 ± 13 mL/m^2
  LV Ejection Fraction: 74.8 ± 5.6%
  LV Mass Index: 131 ± 33 g/m^2
  LV Maximal Wall Thickness: 20.7 ± 3.0 mm
[2]; Echo Measurements, Week 24
  LA Volume Index: 37 ± 11 mL/m^2
  LV Ejection Fraction: 67.8 ± 7.4%
  LV Mass Index: 126 ± 33 g/m^2
  LV Maximal Wall Thickness: 19.2 ± 3.2 mm
[2]; [3]
  LA Volume Index, Treatment Effect: −5 mL/m^2
  LV Ejection Fraction, Treatment Effect: −5.3%
  LV Mass Index, Treatment Effect: −13 g/m^2
  LV Maximal Wall Thickness, Treatment Effect: −1.2 mm
[2]; Treatment (Week 24)
  Inferolateral wall: placebo-corrected treatment difference (95% CI): −0.8 (−1.3, −0.3) mm
  Interventricular septal wall: placebo-corrected treatment difference (95% CI): −1.0 (−1.6, −0.3) mm
  LA volume index: placebo-corrected treatment difference (95% CI): −3.8 ml/m2
  LA width: placebo-corrected treatment difference (95% CI): −2.7 (−3.8, −1.7) mm
  LV Fractional Shortening: placebo-corrected treatment difference (95% CI): −4 (−7, −2) %
  LV end diastolic dimension: placebo-corrected treatment difference (95% CI): −0.3 (−1.1, 0.5) mm
  LV end diastolic volume index: placebo-corrected treatment difference (95% CI): −0.2 (−1.5, 1.2) ml/m2
  LV end systolic dimension: placebo-corrected treatment difference (95% CI): +1.6 (0.7, 2.4) mm
  LV end systolic volume index: placebo-corrected treatment difference (95% CI): +1.7 ml/m2
  LV mass index: placebo-corrected treatment difference (95% CI): −12.2 (−18.0, −6.5) g/m2
  LVOT Gradient, Valsalva: placebo-corrected treatment difference (95% CI): −50 mmHg
  LVOT Gradient, rest: placebo-corrected treatment difference (95% CI): −40 mmHg
  Lateral E/e′: placebo-corrected treatment difference (95% CI): −3.9
  Lateral e′ velocity: placebo-corrected treatment difference (95% CI): +1.2 cm/s
  Max wall thickness: placebo-corrected treatment difference (95% CI): −1.2 (−1.8, −0.6) mm
  Peak A wave velocity: placebo-corrected treatment difference (95% CI): −2.4 (−6.3, 1.5) cm/s
  Peak E wave velocity: placebo-corrected treatment difference (95% CI): −7.5 (−11.7, −3.2) cm/s
  RV s′ velocity: placebo-corrected treatment difference (95% CI): −1.4(−2.0, −0.9) cm/s
  Septal E/e′: placebo-corrected treatment difference (95% CI): −3.6
  Septal e′ velocity: placebo-corrected treatment difference (95% CI): +0.5 cm/s
  TAPSE: placebo-corrected treatment difference (95% CI): −2.1 (−3.2,−1.1) mm
[2]; [4]
  LA volume index: placebo-corrected treatment difference (95% CI): −3.8 (−5.5, −2.2) ml/m2
  LV Ejection Fraction: placebo-corrected treatment difference (95% CI): −4.8% and −5 (−6, −3) %
  LV end systolic volume index: placebo-corrected treatment difference (95% CI): +1.7 (1.0, 2.4) ml/m2
  LV global circumferential strain (absolute): placebo-corrected treatment difference (95% CI): −3.7% and −3.7 (−5.6, −1.8) %
  LVOT Gradient, Valsalva: placebo-corrected treatment difference (95% CI): −50 (−57, −44) mmHg
  LVOT Gradient, rest: placebo-corrected treatment difference (95% CI): −40 (−46, −34) mmHg
  Lateral E/e′: placebo-corrected treatment difference (95% CI): −3.9 (−5.0, −2.8)
  Lateral e′ velocity: placebo-corrected treatment difference (95% CI): 1.2 (0.7, 1.6) cm/s
  Septal E/e′: placebo-corrected treatment difference (95% CI): −3.6 (−4.8, −2.5)
  Septal e′ velocity: placebo-corrected treatment difference (95% CI): 0.5 (0.2, 0.8) cm/s
[2]; Washout (Week 28)
  Inferolateral wall: placebo-corrected treatment difference (95% CI): −0.2 (−0.8, 0.3) mm
  Interventricular septal wall: placebo-corrected treatment difference (95% CI): −0.3 (−1.0, 0.4) mm
  LA volume index: placebo-corrected treatment difference (95% CI): −3.0 (−4.9, −1.0) ml/m2
  LA width: placebo-corrected treatment difference (95% CI): −0.8 (−1.8, 0.3) mm
  LV Ejection Fraction: placebo-corrected treatment difference (95% CI): −1 (−2, 1) %
  LV Fractional Shortening: placebo-corrected treatment difference (95% CI): −1 (−3, 2) %
  LV end diastolic dimension: placebo-corrected treatment difference (95% CI): −0.7 (−1.6, 0.2) mm
  LV end diastolic volume index: placebo-corrected treatment difference (95% CI): −1.2 (−2.5, 0.1) ml/m2
  LV end systolic dimension: placebo-corrected treatment difference (95% CI): −0.2 (−1.1, 0.8) mm
  LV end systolic volume index: placebo-corrected treatment difference (95% CI): −0.1 (−0.7, 0.5) ml/m2
  LV global circumferential strain (absolute): placebo-corrected treatment difference (95% CI): −0.8 (−2.5, 0.9) %
  LV global longitudinal strain (absolute): placebo-corrected treatment difference (95% CI): −0.1 (−0.6, 0.5) %
  LV mass index: placebo-corrected treatment difference (95% CI): −3.7 (−10.2, 2.8) g/m2
  LVOT Gradient, Valsalva: placebo-corrected treatment difference (95% CI): −1 (−8, 6) mmHg
  LVOT Gradient, rest: placebo-corrected treatment difference (95% CI): −1 (−6, 7) mmHg
  Lateral E/e′: placebo-corrected treatment difference (95% CI): −0.2 (−1.6, 1.2)
  Lateral e′ velocity: placebo-corrected treatment difference (95% CI): −0.2 (−0.6, 0.3) cm/s
  Peak A wave velocity: placebo-corrected treatment difference (95% CI): 3.2 (−0.5, 6.9) cm/s
  Peak E wave velocity: placebo-corrected treatment difference (95% CI): −1.6 (−5.8, 2.7) cm/s
  RV s′ velocity: placebo-corrected treatment difference (95% CI): +0.3 (−0.2, 0.9) cm/s
  Septal E/e′: placebo-corrected treatment difference (95% CI): −0.6 (−1.7, 0.6)
  Septal e′ velocity: placebo-corrected treatment difference (95% CI): −0.0 (−0.3, 0.2) cm/s
  TAPSE: placebo-corrected treatment difference (95% CI): +0.8 (−0.3, 1.9) mm
[2]; end of treatment period, from 55±27 at baseline
  rest LV outflow tract gradient on treatment: 20±17 mmHg
[2]; end of treatment period, from 83±32 at baseline
  Valsalva LV outflow tract gradient on treatment: 35±25 mmHg
[2]; week 2
  reduction of Valsalva LVOT gradient compared to baseline: 25%
  reduction of rest LVOT gradient compared to baseline: 31%
